Data as given in article PMC5783350, “Development of an activity-based probe for acyl-protein thioesterases” (PLoS ONE, 2018).
Several values for one entry are separate records, joined by “and”; a condition that tells them apart may be missing. Equal entries are not always repeated.

Assays:
HsAPT2 [1] = target: T1, HsAPT2 (Homo sapiens, UniProt O95372); assay: 4-NPO esterase activity assay, recombinant HsAPT2; type: biochemical; design: made in house; host or cells: E. coli BL21(DE3)pLysS
From the text: (§1) We recently performed a phenotypic screen to identify small-molecule modulators of host cell invasion by the apicomplexan parasite T. gondii. The small-molecules in this directed screen were expected to covalently modify protein targets in an activity-dependent manner. Unexpectedly, this screen not only identified inhibitors of parasite invasion, but also compounds that enhanced host cell invasion. Enhancer compounds were all structurally similar substituted chloroisocoumarins. Using an alkynylated version of the lead enhancer compound (JCP174), we identified the phenotypically relevant target of the enhancer phenotype as the previously uncharacterized thioesterase TgPPT1 [12]. TgPPT1 is the orthologue of the human depalmitoylase HsAPT1, sharing 33% identity by BLAST analysis. […] Therefore, we screened a focused library of substituted chloroisocoumarins to identify compounds that inhibited HsAPT1 and HsAPT2 activity. […] To measure the enzymatic activity of recombinant HsAPT1 and HsAPT2, we used the previously reported substrate, 4-nitrophenyl octanoate (4-NPO), in which enzymatic cleavage of the ester linkage can be measured by UV/Vis spectroscopy upon release of 4-nitrophenolate (Fig 1A). Using this activity readout, we performed our screen with recombinant HsAPT1 and HsAPT2 using a focused library of 100 substituted chloroisocoumarins (Fig 1B). Compounds that produced >50% inhibition of either HsAPT1 or HsAPT2 activity relative to the DMSO control at 10 μM were then re-screened across a range of concentrations to determine in vitro IC50 values (Fig 1C and 1D). Compounds with IC50 values <10 μM for both HsAPT1 and HsAPT2 were scored as hits. According to these criteria, our screen achieved a hit rate of 7% (Table 1). […] We next tested the potency of JCP174 for both enzymes with increasing preincubation times from 30 minutes to 6 hours. The potency of JCP174 increased with longer pre-incubation times for both targets, indicating an irreversible covalent mechanism (S1 Table). […] (S1 Table).
(§2) The 4-nitropenhyl octanoate (4-NPO) activity assay was modified from Dekker et al.. Briefly, 50 μL 20 mM HEPES, 150 mM NaCl, 0.01% v/v Triton-X 100, pH 7.4 buffer with the indicated concentrations of inhibitor or buffer control was added to 96-well plates. To each well, 30 μL of recombinantly expressed enzyme diluted to 1 μM in 20 mM HEPES, 150 mM NaCl, 0.01% v/v Triton-X 100, pH 7.4 buffer was added. The inhibitor and enzyme reaction was incubated at 37°C for 30 minutes before 20 μL of 4-NPO (3.0 mM) was added to the reaction in 20 mM HEPES, 150 mM NaCl, 0.25% v/v Triton-X 100, pH 7.4 buffer. The reaction progress was measured using a Cytation 3 plate reader at 401 nm at 1-minute intervals for 40 minutes.

HsAPT1 [2] = target: T2, HsAPT1 (Homo sapiens, UniProt O75608); assay: 4-NPO esterase activity assay, recombinant HsAPT1; type: biochemical; design: made in house; host or cells: E. coli BL21(DE3)pLysS
T2 sequence (O75608 whole entry): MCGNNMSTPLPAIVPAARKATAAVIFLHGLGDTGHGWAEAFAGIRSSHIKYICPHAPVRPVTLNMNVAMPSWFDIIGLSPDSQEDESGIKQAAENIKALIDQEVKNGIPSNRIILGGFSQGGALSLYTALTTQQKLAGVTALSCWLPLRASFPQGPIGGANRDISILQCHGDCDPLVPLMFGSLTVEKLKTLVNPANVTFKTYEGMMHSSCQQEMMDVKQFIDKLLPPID
From the text: as §1, §2

HsAPT1 [3] = target: T2, HsAPT1; assay: FP-rhodamine ABP competition labeling, U-2 OS (HsAPT1 band); type: cell-based; conditions: intact U-2 OS cells pretreated 1 hour, washed, lysates labeled with FP-rho
HsAPT2 [4] = target: T1, HsAPT2; assay: FP-rhodamine ABP competition labeling, U-2 OS (HsAPT2 band); type: cell-based; conditions: intact U-2 OS cells pretreated 1 hour, washed, lysates labeled with FP-rho
TgPPT1 [5] = type: cell-based, Toxoplasma gondii
TgPPT1 [6] = assay: In-gel labeling of recombinant TgPPT1 with JCP174-BT; type: binding, Toxoplasma gondii; conditions: 1 μM probe
[7] = test system: HsAPT1 and HsAPT2 in intact U-2 OS cells; assay: Intact mammalian cell labeling, in-gel fluorescence; type: cell-based, human
[8] = rHsAPT2, 4-NPO substrate, 30 minutes preincubation at 37°C
[9] = rHsAPT1, 4-NPO substrate, 30 minutes preincubation at 37°C

T1 sequence (O95372 whole entry): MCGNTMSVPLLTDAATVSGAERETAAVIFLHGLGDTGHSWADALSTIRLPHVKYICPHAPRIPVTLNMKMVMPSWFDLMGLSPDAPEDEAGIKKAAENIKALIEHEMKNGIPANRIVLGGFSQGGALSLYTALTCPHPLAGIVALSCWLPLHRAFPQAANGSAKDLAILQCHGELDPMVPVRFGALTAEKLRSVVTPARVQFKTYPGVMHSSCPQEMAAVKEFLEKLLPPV

Row | SMILES | IC50 (HsAPT2 [1]; [8]) | IC50 (HsAPT1 [2]; [9]) | other results
1 | CC(CBr)Oc1oc(=O)c2cc(N)ccc2c1Cl (stereo not shown) [JCP362] | 950 nM | 1200 nM | –
2 | CCCCCCCCCC[C@@H]1C(=O)O[C@H]1CCc1ccc(OC)c(OC)c1 [Palmostatin B, palmostatin B, reference compound] | 320 nM | 310 nM | IC50 (HsAPT2 [1]; preincubation time 2 hr): 700 nM; IC50 (HsAPT2 [1]; preincubation time 6 hr): 1600 nM; Competition for FP-rho labeling of HsAPT1 (HsAPT1 [3]): competed for the same two species; IC50 (HsAPT1 [2]; preincubation time 2 hr): 2500 nM; IC50 (HsAPT1 [2]; preincubation time 6 hr): 6800 nM; Competition for FP-rho labeling of HsAPT2 (HsAPT2 [4]): competed for the same two species
3 | O=c1oc(OCCBr)c(Cl)c2ccc(NC(=S)Nc3ccccc3)cc12 [JCP343] | 9100 nM | 1400 nM | –
4 | C#CCCOc1oc(=O)c2cc(N)ccc2c1Cl [JCP174-alk, 3-(3-Butynoxy)-4-chloro-7-amino-isocoumarin] | 498 nM and 500 nM | 925 nM and 930 nM | –
5 | CCOc1oc(=O)c2cc(NC(=S)Nc3ccccc3)ccc2c1Cl [JCP154] | 2900 nM | 1800 nM | –
6 | O=c1oc(Cl)c(Cl)c2ccccc12 [DCI, dichloroisocoumarin, reference compound] | 2700 nM | 1700 nM | –
7 | COc1ccc(-c2ccc3n2[B-](F)(F)[N+]2=C(C)C(CCC(=O)NCCCn4cc(CCOc5oc(=O)c6cc(N)ccc6c5Cl)nn4)=C(C)C2=C3)cc1 [JCP174-BODIPY TMR] | 1800 nM | 3000 nM | Labeling of TgPPT1 in intact T. gondii tachyzoites (TgPPT1 [5]): strong labeling of TgPPT1 in intact cells; Covalent labeling of active site mutant TgPPT1 S128A (TgPPT1 [6]; recombinant TgPPT1 S128A): did not label the active site mutant; Covalent labeling of wild-type TgPPT1 (TgPPT1 [6]; recombinant TgPPT1 WT): covalently modified; Labeling of HsAPT1 and HsAPT2 in intact U-2 OS cells [7]: labeled APT1 and APT2 in intact cells
8 | O=C(O)c1cccc(NC(=S)Nc2ccc3c(Cl)c(OCCBr)oc(=O)c3c2)c1 [JCP342] | 5200 nM | 1500 nM | –
9 | O=C(O)c1ccc(NC(=S)Nc2ccc3c(Cl)c(OCCBr)oc(=O)c3c2)cc1 [JCP345] | 8500 nM | 7100 nM | –
